Where “and” joins values, the source holds several entries; their conditions need not be identical. Identical values can stand only once.
What was measured:
[1] = tested on: MDA-MB-231 cancer cells; assay: Sulforhodamine B (SRB) growth inhibition assay; format: cell-based, human
Description: Various compounds were tested to evaluate the dose response curve for effect on MCF-7 cancer cells and MDA-MB-231 cancer cells. MCF-7 and MDA-MB-231 cells were cultured in 10% Minimum Essential Medium Eagle (MEME) supplemented with Earle's Balanced Salt Solution (EBSS), Non-essential Amino acids (NEAA), Sodium pyruvate, Pen/Strep, L-glutamine and Fetal Bovine Serum (FBS) at 37° C. in 5% CO2.
Sulforhodamine B (SRB) Assay: A stock solution of compounds was prepared at 50 mM in 100% DMSO. For cells preparation, a flask of 75 cm^2 or 25 cm^2 were used for 2.6×10^5 cells or 1.44×10^5 cells respectively with an 80-90% of confluence. Cells were washed with PBS and trypsinized. The concentration of cells was determined using a 1:2 dilutions with Trypan Blue and a hemocytometer. After cell count, the concentration was adjusted to have a 1.9×10^4 cells/well. Approximately […] of cells suspension, compounds, control positive and control negative were added in triplicates to a 96 well plate. Positive controls used were ellipticine, doxorubicin, and/or vincristine, and the negative control was DMSO 0.1%. All compounds at 50, 25, 12.5, 6.3, and 1.6 μM were incubated with cells at 37° C. for 24 hrs. For fixation, cold TCA 50% was used and incubated at 4° C. for 1 hr. Wells were washed and dried prior to tincture with 100 μL of SRB 0.4%. To remove excess of SRB, acetic acid was used. For analysis, TRIS-BASE Solution (pH=10.5) was used and shacked prior to reading using an ELISA reader at 510 nm and the software SoftMax Pro 4.8.
For each compound, 50% growth inhibition (GI50) was calculated from Sigmoidal dose-response curves (variable-slope) that were generated with data obtained from experiments carried out in triplicates (GI50 values were generated with GraphPad Prism V. 6.02, GraphPad Software, Inc.). The results are presented in FIGS. 4A-4B (MCF-7 cancer cells) and FIGS. 5A-5B (MDA-MB-231 cancer cells).

[2] = tested on: breast cancer cell; assay: Breast cancer cell viability (cell line not given); format: cell-based; conditions: breast cancer cells, at concentrations ≥1 μM
[3] = biological target: Rac (Homo sapiens, UniProt P63000); assay: Rac activation, pulldown with p21-binding domain of PAK / ELISA-based Rac activity assay; format: cell-based; parameters: endogenous in cells; host or cells: MDA-MB-231 and MDA-MB-435 human breast cancer cells; conditions: for efficiency of Rac activation inhibition compared to lead compound Ehop-016: metastatic breast cancer cells
Description: FIG. 8 (A-B). Effect of HV-107 on Rac activation. FIG. 8A. MDA-MB-231 and FIG. 8B. MDA-MB-435 human breast cancer cells were treated for 24 h with 0, 100, or 250 nM HV-107. After treatment, total protein was extracted and equal amounts of proteins subjected to pulldown assays using the p21-binding domain of PAK to isolate the GTP bound (active) Rac. Samples were then western blotted for total and active Rac and positive bands quantified using image J. N=2; error bars represent ±SEM; * p≤0.05.
FIG. 10 (A-B). Effect of HV-118 on Rac activation. FIG. 10A. MDA-MB-231 and FIG. 10B. MDA-MB-435 human breast cancer cells were treated for 24 h with 0, 25, 50, or 100 nM HV-118. After treatment, total protein was extracted and equal amounts of proteins subjected to pulldown assays using the p21-binding domain of PAK to isolate the GTP bound (active) Rac. Samples were then western blotted for total and active Rac and positive bands quantified using image J. N=3-6; error bars represent ±SEM; * p≤0.05.
Additionally, the effect of replacing the aliphatic amide group at the 3-position with an aromatic ring, was also explored by synthesizing compound 7b. […] Addition of a three-carbon atom aliphatic chain linker between the pyridine ring (at the 2-position) and the morpholine group, as for 3d and 11a, results in some loss of anti-migratory activity. Moreover, the effect of 11b was tested on Rac activity, using an ELISA-based Rac activity assay and pulldowns assay.
The effects of HV-107 on the inhibition of Rac activation were tested by pulldown assays.
(§1) In FIG. 8A and FIG. 8B, human breast cancer cells MDA-MB-231 and MDA-MB-435, respectively, were treated for 24 h with 0, 250, or 500 nM HV-107. After treatment, total protein was extracted and equal amounts of proteins subjected to pulldown assays using the p21-binding domain of PAK to isolate the GTP bound (active) Rac. Samples were then western blotted for total and active Rac and positive bands quantified using image J. N=2; error bars represent ±SEM; * p≤0.05.
The effects of HV-118 on the inhibition of Rac activation were tested by pulldown assays.
as §1, with “10A” for “8A”, “10B,” for “8B,”, “25, 50,” for “250,”, “100” for “500”, “HV-118.” for “HV-107.”, “N=3-6;” for “N=2;”

| SMILES | GI50 ([1]; Homo sapiens, MDA-MB-231, SRB assay, 24 h treatment, mean of triplicate, SD <10%) [µM] | anti-proliferative activity / cytotoxicity in words ([1]; MDA-MB-231, concentrations ≤50 μM) | inhibition of breast cancer cell viability [2] [%] | inhibition at 0.25 µM ([3]; at 250 nM, 24 h, MDA-MB-231 and MDA-MB-435 cells) [%] | inhibition of Rac activation ([3]; at 250 nM, 24 h, MDA-MB-231 and MDA-MB-435 cells, listed as HV-107, 0.25 µM) | efficiency of Rac activation inhibition compared to lead compound Ehop-016 [3] | inhibition at 0.1 µM ([3]; at 100 nM, 24 h, MDA-MB-231 and MDA-MB-435 cells) [%] | potency relative to EHop-016 ([3]; preliminary data) |
| --- | --- | --- | --- | --- | --- | --- | --- | --- |
| CCn1c2ccccc2c2cc(C(=O)Nc3cccnc3N3CCOCC3)ccc21 [Compound 11b, 9-Ethyl-9H-carbazole-3-carboxylic Acid (2-morpholin-4-yl-pyridin-3-yl)-amide] | > 50 | minimal cytotoxicity | 45 | 55 | 60% and 50% | approximately 4 × |  |  |
| CCn1c2ccccc2c2cc(Nc3cc(C)nc(Cl)n3)ccc21 [HV-118, (2-Chloro-6-methyl-pyrimidin-4-yl)-(9-ethyl-9H-carbazol-3-yl)-amine] |  |  |  |  |  | approximately 10 × | ~60 | up to 20 times |
